Assays:
Assay in all cases: Cell viability of GBM cells exposed to WNT974
[1] = test system: U87 cells (WNT6-negative GBM); assay type: cell-based, human
Method: (§1) FIG. 13. WNT6-positive GBM cell lines are more sensitive to WNT974 (an inhibitor of the WNT pathway) than a WNT6-negative GBM cell line. A. GBM cells positive to WNT6 (U373, […], and GL42) and negative to WNT6 (U87) were exposed to increasing doses of WNT974 (0, 10, 20, or 30 μM). The viability of U87 cells (WNT6-negative) was not affected by WNT inhibition, in contrast to WNT6-positive GBM cells (U373, SNB19, and GL42) that are highly-sensitive. B. Cells were exposed to increasing doses of WNT974 (0, 10, 20, or 30 μM) and to a fixed dose of TMZ (temozolomide, the gold standard chemotherapeutic drug used for GBM patients; U373: 400 μM; SNB19: 800 μM; GL42: 200 μM; U87: 800 μM).

[2] = test system: U373 cells (WNT6-positive GBM); assay type: cell-based, human
Method: as §1

[3] = test system: SNB19 cells (WNT6-positive GBM); assay type: cell-based, human
Method: as §1

[4] = test system: GL42 cells (WNT6-positive GBM); assay type: cell-based
Method: as §1

Compound: Cc1cc(-c2ncc(CC(=O)Nc3ccc(-c4cnccn4)cn3)cc2C)ccn1 [WNT974]
- cell viability, sensitivity to WNT inhibition ([1]; U87 (WNT6-negative), WNT974 0, 10, 20, or 30 μM): not affected
- cell viability, sensitivity to combinatorial therapy ([1]; U87, WNT974 0, 10, 20, or 30 μM plus fixed dose TMZ 800 μM): no effect
- cell viability, sensitivity to WNT inhibition ([2]; U373 (WNT6-positive), WNT974 0, 10, 20, or 30 μM): highly-sensitive
- cell viability, sensitivity to combinatorial therapy ([2]; U373, WNT974 0, 10, 20, or 30 μM plus fixed dose TMZ 400 μM): higher sensitivity
- cell viability, sensitivity to WNT inhibition ([3]; SNB19 (WNT6-positive), WNT974 0, 10, 20, or 30 μM): highly-sensitive
- cell viability, sensitivity to combinatorial therapy ([3]; SNB19, WNT974 0, 10, 20, or 30 μM plus fixed dose TMZ 800 μM): higher sensitivity
- cell viability, sensitivity to WNT inhibition ([4]; GL42 (WNT6-positive), WNT974 0, 10, 20, or 30 μM): highly-sensitive
- cell viability, sensitivity to combinatorial therapy ([4]; GL42, WNT974 0, 10, 20, or 30 μM plus fixed dose TMZ 200 μM): higher sensitivity

Reference: patent publication US20210041443A1, “WNT6 AS GLIOBLASTOMA ONCOGENIC BIOMARKER, AND USES OF INHIBITORS THEREOF” (UNIVERSIDADE DO MINHO, priority 2018, published 2021)
